# Measurements: US10648917B2, “Luminescent compositions and applications thereof” (THE PENN STATE RESEARCH FOUNDATION, priority 2015, dated 2020)
# Experiment: Halide fluorescence quenching (Stern-Volmer)
# Assay type: physicochemical
# Protocol: Absorbance Spectra were recorded on Tecan Infinite M200 Pro UV-vis spectroscopy, and fluorescence spectra were recorded on Horiba FluoroMax-4 fluorospectroscopy at concentrations below 0.1 O.D. unless otherwise indicated. Quantum Yields were measured on the Quantum φ Integrating Sphere accessory to the FluoroMax-4, while lifetime measurements were determined through the Time-Correlation Single Photon Counting (TCSPC) accessory to the FluroMax-4. TCSPC was utilized in conjunction with NanoLED pulsed diode light source with peak excitation wavelength at 352 nm and at 10,000 counts peak preset. Emission was collected at the fluorescence λmax, unless otherwise indicated. For all pH-dependence experiments, sample pH was adjusted with sulfuric acid or sodium hydroxide. For all chloride-dependent quenching experiments, magnesium chloride hexahydrate (Sigma Aldrich) was used.
# When a fluorophore of [F] absorbs light energy, excitation raises a sub-population of [F] to the excited state, [F*], which then rapidly lose energy along radiative relaxation (kr) or non-radiative relaxation (knr) according to equation 7. If a quencher forms a complex with the excited fluorophore, an extra non-radiative component, kq, is added to equation 7 to account for the additional relaxation pathway that is a function of quencher concentration and its association constant.
# [formula] Thus the quenching of fluorescence can be quantitatively analyzed by comparing the affected lifetimes. The Stern-Volmer (SV) relationship is used to determine kq, the bimolecular quenching rate constant for the diffusion coefficients of the fluorophore and quencher, by deriving a plot of τ0/τ versus [Q]:
# [formula] Thus the linear slope of the SV plot, KSV, measures the efficiency of the quencher. Since sulfuric acid was used to study proton-induced quenching, the pH value was a better indicator of [H^+] due to incomplete dissociation of sulfuric acid at high concentrations. In the case of multiple quenchers, as will be discussed in this paper, equation 7 must include additional kq terms that result in modified form of equation 12 below:
# [formula] If the two quenchers are act independently, the quencher of known quenching rate and concentration can be combined into the Y-intercept term in order to determine the quenching rate of the second, unknown quencher. […]
# To translate halide quenching into quantitative sensing applications, a modified Stern-Volmer equation (Equation 14) was used to linearize the effects of two quenchers, protons and the halide being studied, on the fluorescence of CA-Cysteine. […]
# Since the measured sample fluorescence is quenched by both protons and halides, the unquenched fluorescence, Io, was defined as the fluorescence of the neutral state CA-Cysteine in the absence of additional proton or halide quenchers. As mentioned above, the effects of protolytic equilibria stabilize around pH 2.2, where CA-Cysteine undergoes 99% conversion from the dianion state and is marked by constant fluorescence intensities (FIG. 13). […] Thus we chose the fluorescence intensity at pH 2.2 (in the absence of halides) as the unquenched reference signal, Io. IH,Cl in equation 23 is the sample fluorescence at the pH and halide concentration indicated. […]
compound,measurement,setting,value
O=C(O)c1cc2n(c(=O)c1)C(C(=O)O)CS2 (stereo not shown) [CA-Cys],fluorescence quenching by magnesium sulfate and sodium sulfate,,did not quench fluorescence under any conditions
same,fluorescence quenching by bromide and iodide,compared with chloride,quenched by bromide and iodide at even greater affinities
same,fluorescence quenching by magnesium chloride,pH 8.2,no significant quenching
same,fluorescence quenching by magnesium chloride,strongly acidic conditions (pH 2.4),quenched
